In data set [1] the test system is BJ cell line. The following applies: BJ cell line (normal fibroblast), 72 hour incubation.
The subject of data set [2] is WERI cell line (WERI-Rb1). Nature of the data set: Retinoblastoma cell proliferation inhibition assay (Cell Titer Glo, 72 hour incubation). It is filed as cell-based, human. (In general: Cellular ATP, detected with luciferase, serves as a proxy for viable cell number.)
Data set [3] deals with Y79 cell line. The data set is described as above. It counts as cell-based, human.
Data set [4] is described as follows: Ocular pharmacokinetic study, suprachoroidal administration of micelle formulation, tissue concentration by LCMS. It is filed as in vivo, New Zealand White rabbits. As to conditions: 25 μg dose, micellular formulation, rabbit. The text has this:
Both solutions were filter sterilized by passage through a sterile 0.2 micron nylon syringe filter into a sterile vial to produce a sterile formulation. The mixture was vortex mixed to produce a micelle suspension. […] A flexible catheter with 250 micron OD and 140 micron ID was surgically introduced into the suprachoroidal space in the anterior region of the eye at the pars plana. The catheter was advanced posteriorly toward the posterior region of the suprachoroidal space. The catheter was configured to conduct light and provided illumination of the catheter tip and shaft to determine the catheter position and configuration by trans-scleral visualization. The illuminated tip of the catheter was used to position the catheter in the posterior region of the suprachoroidal space. The illuminated shaft of the catheter was used to manipulate and position the catheter to direct the injection toward the posterior region of the space. […] The eyes were examined by slit lamp in the anterior segment and by indirect ophthalmoscopy in the posterior segment prior to euthanasia for each time point at 1, 3, 7, 14 days post administration.

Data set [5] has as its system Human retinoblastoma tumour cells, Y79. Nature of the data set: Retinoblastoma in vivo model, retinoblastoma cell area on the retina by histology. The arrangement: species or system rabbits. The following applies: for retinoblastoma cell areas from both H&E staining and antibody staining: culled at 5 weeks; for reduction in retinoblastoma cells in the eyes as compared to sham: p<0.01. The procedure:
Human retinoblastoma tumour cells, Y79 (ATCC@ HTB-18), were grown in media consisting of RPMI 1640 containing 20% FBS, L-glutamine 200 mM (100×), penicillin/streptomycin 5,000 U/ml and amphotericin B 250 μg/ml, to a target suspension density of 3×10^5 cells/flask in 20 ml of media in a T75 flask. Thirty-two eyes in 16 immunosuppressed rabbits were inoculated with 200,000 cells in 30 μl of serum free media to the posterior retinal surface by intravitreal injection. The animals were studied in 4 groups of 8 eight eyes. Two groups were administered topotecan prepared in 30 μl of sterile saline injected intravitreally through a 29 gauge needle in the posterior region of the vitreous cavity near the tumour cells. One topotecan group was administered a 10 μg dose and a second group administered a 50 μg dose. The topotecan groups were administered the active agent formulation at 2, 3 and 4 weeks after tumour cell inoculation. […] A fourth group was treated with a sham injection of 30 μl sterile saline through a 29 gauge needle in the posterior region of the vitreous near the tumour cells at 2, 3 and 4 weeks after tumour cell inoculation. All animals were culled at 5 weeks to allow processing of the retina and retinoblastoma tumour cells on the retina for histological examination. Macro photography of the flat mounted retinae recorded tumour cell survival on the retinae and then representative sections were removed for fixation and subsequent processing for histology. All samples were cut at 5 μm and stained by H&E and replicate slides stained with human mitochondrial marker antibody to positively identify the human retinoblastoma cells. Slides were then scanned using a slide scanner (Histech or Hamamatsu S360) and retinoblastoma cell area on the retina quantified using CaseViewer software.
Representative histology images are shown in FIG. 4 with arrows indicating the retinoblastoma cells on the retina.

Data set [6] deals with BJ cell line. The data set can be described thus: cells. As to conditions: Homo sapiens, 72 h.

Read-outs that look alike come from different tables or passages of the source.

Consider 4 compounds from patent publication US20220409560A1, “Pharmaceutical Compositions, Formulations And Methods For The Treatment Of Retinoblastoma” (Oxular Limited, priority 2019, published 2022).

In general, EC50 refers to the concentration giving half of the maximal effect. Read a high EC50 as weaker potency. As for `Cc1cc2c(C(=O)NC[C@H](C)c3ccccc3)c(O)c(O)cc2c(O)c1-c1c(C)cc2c(C(=O)NC[C@H](C)c3ccccc3)c(O)c(O)cc2c1O` [Sabutoclax], the EC50 in data set [1] was greater than 3650 nM; in data set [2] it was 211 nM; in data set [3], 316 nM.

Turning to `CC(C)c1ccccc1Cc1cc(C(=O)Nc2ccc(S(=O)(=O)c3ccccc3C(C)(C)C)cc2)c(O)c(O)c1O` [TW-37], in data set [4], the “choroid concentration at 14 days” value is listed as “near baseline”, the “level of TW-37 in the vitreous” value was “relatively low levels”, the “retina concentration at 14 days” value is listed as “near baseline” and the “time of peak concentration in the choroid” value is listed as 3 days. Further, in data set [4], the “time of peak concentration in the retina” value turned out to be 7 days and the “tissue exposure of TW-37 to the target retina after a single administration” value is 14 days. In data set [5] (10 μg in DMSO intravitreal at 3 and 4 weeks after inoculation), the “retinoblastoma cell areas from both H&E staining and antibody staining” value is listed as “lower compared to sham”. Also, the “reduction in retinoblastoma cells in the eyes as compared to sham” value in data set [5] (10 μg intravitreal at 3 and 4 weeks) is “statistically significant reduction”. Further, the EC50 in data set [1] is greater than 8760 nM. In data set [2], this compound came in with a half-maximal effective concentration (EC50) of 278 nM. The compound also yielded an EC50 in data set [3] of 335 nM.

With `CC[C@@]1(O)C(=O)OCc2c1cc1n(c2=O)Cc2cc3c(CN(C)C)c(O)ccc3nc2-1` [Topotecan], the “retinoblastoma cell areas from both H&E staining and antibody staining” value in data set [5] (10 μg intravitreal at 2, 3 and 4 weeks after inoculation) is listed as “lower compared to sham”; in data set [5] (50 μg intravitreal at 2, 3 and 4 weeks after inoculation), “lower compared to sham”. In addition, the “reduction in retinoblastoma cells in the eyes as compared to sham” value in data set [5] (high dose (50 μg) intravitreal) is “statistically significant reduction”. In addition, the EC50 was 39 nM in data set [2] (Homo sapiens), greater than 2570 nM in data set [6] and 69 nM in data set [3] (Homo sapiens).

Regarding `O=C(CCCCCCC(=O)Nc1ccccc1)NO` [Vorinostat], in data set [6], the EC50 was greater than 54400 nM.
